# Source: paper PMC10819458, “Using Pharmacokinetic–Pharmacodynamic Modeling to Study the Main Active Substances of the Anticancer Effect in Mice from Panax ginseng–Ophiopogon japonicus” (Molecules, 2024)
# Read-outs that look alike come from different tables or passages of the source.
# Test: Lung-tissue pharmacokinetics of PG–OJ components in tumor-bearing mice (UPLC–MS/MS)
# Format: in vivo, BALB/c nude male mice
# Details: for MRT last: read-out: MRT(0–t) (converted)
# Text: This study employed Ultra-Performance Liquid Chromatography–Mass Spectrometry (UPLC–MS/MS) to examine the pharmacokinetic properties of 20 bioactive components in a cell-derived xenograft (CDX) model following oral administration of a 10.2 g/kg PG–OJ extract.
# Healthy BALB/c nude male mice (weight: 18–21 g) were purchased from Beijing Huafukang Biotechnology Co., Ltd. (Beijing, China, License Number: SCXK (Jing) 2021-0006). After 3 days of acclimatization, the mice were randomly divided into the control group (CG), model group (MG), and the combined-administration group of P. ginseng and O. japonicus (HM1-HM13) ([…], four-fold clinical-equivalent doses). Subsequently, except for the CG, 0.2 mL (approximately 2 × 10^7 cells) of A549 cell suspension was aspirated with a 1 mL syringe and injected into the right axillary fossa of the model group and drug-administration-group mice. The control-group mice were injected with an equal volume of PBS at the same location. The tumor diameter was measured daily using a caliper. The model was successful when the tumor diameter > 3 mm. The combined-administration group of P. ginseng and O. japonicus was given the corresponding drug orally, once a day, with 0.2 mL/mouse each time. The control group and the model group mice were given the same volume of distilled water, continuously orally for 21 days. During this period, the body weight and tumor volume of the mice were recorded. At the end of the last administration, the mice were […] 0.083, 0.167, 0.25, 0.5, 0.75, 1, 2, 3, 4, 6, 8, 12, 24 h later. After injecting 0.1% pentobarbital sodium, blood was collected from the eye-socket vein, the mice were decapitated, and the tumor and lung tissues were carefully removed.
# After homogenizing 50 mg of right-lung-tissue sample, 2 mL of acetonitrile was added to precipitate proteins. The mixture was oscillated for 2 min and then centrifuged for 10 min (12,000 rpm, 4 °C). The supernatant from the new centrifuge tube was collected and dried with nitrogen at room temperature. Finally, the supernatant was redissolved in 50 μL of acetonitrile solution containing 0.1% formic acid. After oscillating for 1 min, another centrifugation step was performed, and the resulting supernatant was used for analysis.
# Samples were analyzed on the Vanquish UPLC System (Thermo, Waltham, MA, USA). The Agilent C18 column (4.6 × 150 mm, 4 μm, PN:693970-902T) was selected. The mobile phase was composed of 0.1% formic acid aqueous solution (A) and 0.1% formic acid acetonitrile solution (B). The procedure of gradient elution was as follows: 0–10 min, 95–75% A; 10–25 min, 75–45% A; 25–40 min, 45–30% A; 40–50 min, 30–5% A; 55–55.1 min, 5–95% A; 55.1–60 min, 95% A. The column temperature was set to 30 °C with the flow rate of 0.3 mL/min and the injection volume of 3.0 μL. The mass-spectrometry detection with negative-ion mode was carried out using an Orbitrap Exploris 120 Mass Spectrometer (Thermo, Waltham, MA, USA) and Electrospray ionization (ESI). The sheath-gas-flow rate was […] and the auxiliary-gas-flow rate was […]. The capillary temperature was 325 °C, and the resolution was 120,000 in full scan mode with the mass scan range of 80~1500 m/z. The secondary cracking was performed with HCD at a collision voltage of 30 eV, and unnecessary MS/MS information was removed using the dynamic exclusion method.
# [1] = male, BALB/c nude, mouse, in vivo, po
# [2] = male, BALB/c nude, mouse, in vivo, po, Tmax
# [3] = lung tissue, A549 tumor-bearing mice, intragastric PG–OJ extract 10.2 g/kg (6.8 g/kg elsewhere in the source), mean ± SD, n = 6
# [4] = lung tissue, oral PG–OJ extract, in words
# [5] = male, BALB/c nude, mouse, lung tissue, po, 10.2 g/kg, lung tissue, A549 tumor-bearing mice, intragastric PG–OJ extract 10.2 g/kg (6.8 g/kg elsewhere in the source), mean ± SD, n = 6, read-out: Tmax (converted)
# [6] = male, BALB/c nude, mouse, lung tissue, po, 10.2 g/kg, lung tissue, oral PG–OJ extract, read-out: time to reach peak concentration
# [7] = male, BALB/c nude, mouse, po, lung tissue, A549 tumor-bearing mice, intragastric PG–OJ extract 10.2 g/kg (6.8 g/kg elsewhere in the source), mean ± SD, n = 6, read-out: Cmax
# [8] = male, BALB/c nude, mouse, po, lung tissue, A549 tumor-bearing mice, intragastric PG–OJ extract 10.2 g/kg (6.8 g/kg elsewhere in the source), mean ± SD, n = 6
# [9] = male, BALB/c nude, mouse, po, lung tissue, A549 tumor-bearing mice, intragastric PG–OJ extract 10.2 g/kg (6.8 g/kg elsewhere in the source), mean ± SD, n = 6, read-out: T1/2
# [10] = lung tissue, oral PG–OJ extract
Compound,half-life [1] [h],Tmax [2] [h],AUC(0–t) [3],AUC(0–∞) [3],Tmax [5] [h],Cmax [7] [ng/g],MRT last [8] [h],half-life [9] [h],also measured
24(R)-pseudoginsenoside F11,–,–,–,–,–,–,–,–,"T1/2 (mouse, in vivo, po): 3.786 ± 0.2045 h; Tmax (mouse, in vivo, po): 0.25 ± 0 h; time to reach maximum concentration (Cmax) after administration (mouse, in vivo, po): ≤ 15 min"
CC(C)=CCC[C@](C)(O[C@@H]1O[C@H](CO)[C@@H](O)[C@H](O)[C@H]1O)[C@H]1CC[C@]2(C)[C@@H]1[C@H](O)C[C@@H]1[C@@]3(C)CC[C@H](O)C(C)(C)[C@@H]3[C@@H](O)C[C@]12C [Ginsenoside F1],2.24 ± 0.241,4,–,–,–,–,–,–,"exposure level in lung tissue (mouse, in vivo, po): extremely low"
CC(C)=CCC[C@](C)(O[C@@H]1O[C@H](CO)[C@@H](O)[C@H](O)[C@H]1O)[C@H]1CC[C@]2(C)[C@@H]1[C@H](O)C[C@@H]1[C@@]3(C)CC[C@H](O[C@@H]4O[C@H](CO)[C@@H](O)[C@H](O)[C@H]4O)C(C)(C)[C@@H]3CC[C@]12C [Ginsenoside F2],5.83 ± 0.269,1,–,–,–,–,–,–,"AUC(0–∞) compared with other components (mouse, in vivo, po): significantly higher than those of other components"
CC(C)=CCC[C@](C)(O[C@@H]1O[C@H](CO[C@@H]2O[C@H](CO)[C@@H](O)[C@H](O)[C@H]2O)[C@@H](O)[C@H](O)[C@H]1O)[C@H]1CC[C@]2(C)[C@@H]1[C@H](O)C[C@@H]1[C@@]3(C)CC[C@H](O[C@@H]4O[C@H](CO)[C@@H](O)[C@H](O)[C@H]4O[C@@H]4O[C@H](CO)[C@@H](O)[C@H](O)[C@H]4O)C(C)(C)[C@@H]3CC[C@]12C [Ginsenoside Rb1],–,–,"227,245.91 ± 5460.47 ng/g·min","283,948.70 ± 17,261.40 ng/g·min",12,441 ± 15.7,11.5,32.9 ± 3.15,AUC(0–∞) compared with other components [4]: significantly higher than those of other components; Tmax [6]: 12 h
CC(C)=CCC[C@](C)(O[C@@H]1O[C@H](CO[C@@H]2OC[C@H](O)[C@H](O)[C@H]2O)[C@@H](O)[C@H](O)[C@H]1O)[C@H]1CC[C@]2(C)[C@@H]1[C@H](O)C[C@@H]1[C@@]3(C)CC[C@H](O[C@@H]4O[C@H](CO)[C@@H](O)[C@H](O)[C@H]4O[C@@H]4O[C@H](CO)[C@@H](O)[C@H](O)[C@H]4O)C(C)(C)[C@@H]3CC[C@]12C [Ginsenoside Rb2],–,–,3935.63 ± 598.40 ng·min/g,6076.50 ± 664.68 ng·min/g,–,7.2 ± 0.96,11.9,19.9 ± 4.38,–
CC(C)=CCC[C@](C)(O[C@@H]1O[C@H](CO[C@@H]2OC[C@@H](O)[C@H](O)[C@H]2O)[C@@H](O)[C@H](O)[C@H]1O)[C@H]1CC[C@]2(C)[C@@H]1[C@H](O)C[C@@H]1[C@@]3(C)CC[C@H](O[C@@H]4O[C@H](CO)[C@@H](O)[C@H](O)[C@H]4O[C@@H]4O[C@H](CO)[C@@H](O)[C@H](O)[C@H]4O)C(C)(C)[C@@H]3CC[C@]12C [Ginsenoside Rb3],–,–,4049.29 ± 622.84 ng·min/g,"16,689.44 ± 2585.97 ng/g·min",–,5.92 ± 0.45,13.8,66.6 ± 8.6,–
CC(C)=CCC[C@](C)(O[C@@H]1O[C@H](CO[C@@H]2O[C@@H](CO)[C@H](O)[C@H]2O)[C@@H](O)[C@H](O)[C@H]1O)[C@H]1CC[C@]2(C)[C@@H]1[C@H](O)C[C@@H]1[C@@]3(C)CC[C@H](O[C@@H]4O[C@H](CO)[C@@H](O)[C@H](O)[C@H]4O[C@@H]4O[C@H](CO)[C@@H](O)[C@H](O)[C@H]4O)C(C)(C)[C@@H]3CC[C@]12C [Ginsenoside Rc],–,–,"23,180.66 ± 703.80 ng/g·min","25,129.88 ± 1611.92 ng/g·min",12,43 ± 2.11,11.6,7.41 ± 1.68,Tmax [6]: 12 h
CC(C)=CCC[C@](C)(O[C@@H]1O[C@H](CO)[C@@H](O)[C@H](O)[C@H]1O)[C@H]1CC[C@]2(C)[C@@H]1[C@H](O)C[C@@H]1[C@@]3(C)CC[C@H](O[C@@H]4O[C@H](CO)[C@@H](O)[C@H](O)[C@H]4O[C@@H]4O[C@H](CO)[C@@H](O)[C@H](O)[C@H]4O)C(C)(C)[C@@H]3CC[C@]12C [Ginsenoside Rd],–,–,"46,163.94 ± 1033.00 ng/g·min","56,296.57 ± 6663.99 ng/g·min",–,83 ± 2.11,11.1,16.2 ± 3.68,AUC(0–∞) compared with other components [4]: significantly higher than those of other components
CC(C)=CCC[C@](C)(O[C@@H]1O[C@H](CO)[C@@H](O)[C@H](O)[C@H]1O)[C@H]1CC[C@]2(C)[C@@H]1[C@H](O)C[C@@H]1[C@@]3(C)CC[C@H](O)C(C)(C)[C@@H]3[C@@H](O[C@@H]3O[C@H](CO)[C@@H](O)[C@H](O)[C@H]3O[C@@H]3O[C@@H](C)[C@H](O)[C@@H](O)[C@H]3O)C[C@]12C [Ginsenoside Re],–,–,3815.68 ± 233.30 ng·min/g,3933.20 ± 224.66 ng·min/g,0.0833,132 ± 32.9,1.57,1.76 ± 0.0727,time to reach maximum concentration (Cmax) after administration [10]: ≤ 15 min
CC(C)=CCC[C@](C)(O)[C@H]1CC[C@]2(C)[C@@H]1[C@H](O)C[C@@H]1[C@@]3(C)CC[C@H](O)C(C)(C)[C@@H]3[C@@H](O[C@@H]3O[C@H](CO)[C@@H](O)[C@H](O)[C@H]3O[C@@H]3O[C@H](CO)[C@@H](O)[C@H](O)[C@H]3O)C[C@]12C [Ginsenoside Rf],1.28 ± 0.0173,0.25,–,–,–,–,–,–,"time to reach maximum concentration (Cmax) after administration (mouse, in vivo, po): ≤ 15 min"
CC(C)=CCC[C@](C)(O[C@@H]1O[C@H](CO)[C@@H](O)[C@H](O)[C@H]1O)[C@H]1CC[C@]2(C)[C@@H]1[C@H](O)C[C@@H]1[C@@]3(C)CC[C@H](O)C(C)(C)[C@@H]3[C@@H](O[C@@H]3O[C@H](CO)[C@@H](O)[C@H](O)[C@H]3O)C[C@]12C [Ginsenoside Rg1],–,–,2295.03 ± 213.32 ng·min/g,2345.90 ± 212.68 ng·min/g,0.25,50.2 ± 6.67,2.26,1.64 ± 0.0457,time to reach maximum concentration (Cmax) after administration [10]: ≤ 15 min
CC(C)=CCC[C@](C)(O)[C@H]1CC[C@]2(C)[C@@H]1[C@H](O)C[C@@H]1[C@@]3(C)CC[C@H](O)C(C)(C)[C@@H]3[C@@H](O[C@@H]3O[C@H](CO)[C@@H](O)[C@H](O)[C@H]3O[C@@H]3O[C@@H](C)[C@H](O)[C@@H](O)[C@H]3O)C[C@]12C [Ginsenoside Rg2],3.58 ± 0.103,0.25,–,–,–,–,–,–,"AUC(0–∞) compared with other components (mouse, in vivo, po): significantly higher than those of other components; time to reach maximum concentration (Cmax) after administration (mouse, in vivo, po): ≤ 15 min"
CC(C)=CCC[C@](C)(O)[C@H]1CC[C@]2(C)[C@@H]1[C@H](O)C[C@@H]1[C@@]3(C)CC[C@H](O[C@@H]4O[C@H](CO)[C@@H](O)[C@H](O)[C@H]4O[C@@H]4O[C@H](CO)[C@@H](O)[C@H](O)[C@H]4O)C(C)(C)[C@@H]3CC[C@]12C [Ginsenoside Rg3],–,–,1879.87 ± 53.24 ng·min/g,"14,133.43 ± 3134.88 ng/g·min",–,–,–,–,Cmax [3]: 4.75 ± 0.12 ng/g; MRT(0–t) [3]: 3.8352 ± 0.0448 h; T1/2 [3]: 39.6943 ± 9.3722 h; Tmax [3]: 0.0833 ± 0 h
